From article PMC11729550, “Discovery of indole analogue Tc3 as a potent pyroptosis inducer and identification of its combination strategy against hepatic carcinoma” (Theranostics, 2025)

How the values were obtained:
PERK = assay: Western blot of ER stress responders; assay type: cell-based, human; conditions: HepG2 and SK-Hep1 cells
Description: (§1) The whole-cell protein was extracted by RIPA lysis buffer contained with protease and phosphatase inhibitor cocktail (MCE, HY-K0010) from cells treated by indole analogues. Proteins were separated by sodium dodecyl sulfate-polyacrylamide gel electrophoresis (SDS-PAGE) gel, and then blotted onto polyvinylidene difluoride membrane (Millipore, IPVH00010). The membranes were incubated with the primary antibodies and the following horseradish peroxidase-conjugated (HRP) secondary antibodies. Next, membranes were washed and developed by ECL regent (Millipore, WBKLS0500).

HepG2 and SK-Hep1 cells = assay: LDH release assay; assay type: cell-based, human; conditions: 0-4 μM, three days
Description: The hepatic carcinoma cells were seeded in 96-well plates and treated with indole analogues for three days. Of note, the compounds were added into DMEM medium supplemented with 1% FBS. The cellular supernatant was collected for LDH release detection by using LDH cytotoxicity assay kit (Beyotime, C0016). Statistical analysis was combined with the cell viability data tested by WST-1 cell proliferation and cytotoxicity assay kit (Beyotime, C0035).

Balb/c mice = assay: Subchronic toxicity test; assay type: in vivo
Description: And the organ tissues of mice were collected for further H&E staining.
The formalin‐fixed and paraffin‐embedded tissues were cut into 5 μm sections. The sections were firstly soaked in xylene for removing paraffin and soaked in alcohol at decreasing concentration for tapping water. In the H&E staining assay, the sections were stained in Harris’s hematoxylin reagent and eosin reagent in turn. In the IHC staining, the sections were conducted antigen retrieval process and blocked with normal goat serum. Next, sections were incubated with the primary antibodies overnight and incubated with HRP-conjugated secondary antibodies. The tissue images were captured by a microscope.

Hepa1-6 CDXs = assay: Anti-PD-1 antibody synergistic effect in vivo; conditions: C57 BL/6N mice
Description: (§2) Balb/c nude mice (female, 6-week-old) were subcutaneously injected with 2 × 10^6 HepG2 cells on the left and right flanks to construct cell-derived xenografts (CDXs). The patient-derived xenografts (PDXs) samples were gifts from Dr Changliang Shan of Nankai University. C57 BL/6N mice (female, 5-week-old) were subcutaneously injected with 2 × 10^6 Hepa1-6 cells mixed with matrigel (ABW, 0827265) on the left and right flanks. The mice were inoculated with hepatic carcinoma CDXs or PDXs for at least four days, and treated (i.p.) by vehicle and Tc3. […] Tumor volume = 4π/3 × (Length/2) × (Width/2)^2. All animal experiments were carried out in accordance with the recommendations of Requirements of the Ethical Review System of Biomedical Research Involving Human by National Health and Family Planning Commission of China and Nankai University Ethics Committee with written informed consent complying with the Declaration of Helsinki (IAEC ID: 2023-STDWLL-000249).
The CDI value of tumor weight was calculated using formula mentioned before.

GSDME = assay: Western blot of GSDME activation; assay type: cell-based, human; conditions: HepG2 and SK-Hep1 cells
Description: as §1

HepG2 CDXs = HepG2 CDXs treatment; assay type: in vivo, Balb/c nude mice; conditions: 20 mg/kg and 40 mg/kg i.p. five times
Description: as §2

ROS = assay: Reactive Oxygen Species detection (DCFH-DA); assay type: cell-based, human; conditions: HepG2 cells, 24 h
Description: The hepatic carcinoma cells were seeded in 6-well plates and treated with Tc3 for 24 h. The cells were then stained by DCFH-DA (10 μM) for 20 min, washed with PBS buffer for two times, and the fluorescence intensity was captured by a confocal microscope (Leica, TCS SP8).

in vitro = conditions: microsomes
Description: The reaction media contained liver microsomes (0.5 mg/mL), 1.0 mM β-nicotinamide adenine dinucleotide phosphate (β-NADPH), 3 mM MgCl2 phosphate buffer. Microsomal suspensions were pre-incubated with Tc3 for 3 min at 37℃. The reaction was initiated with the addition of β-NADPH and samples were collected at 0, 5, 15, 30 and 60 min. The negative control was excluded of β-NADPH. Midazolam was incubated similarly as a positive control substrate. At each time point, an aliquot was mixed acetonitrile. Samples were centrifuged and then supernatant was mixed with ultrapure water for LC-MS/MS analysis.

hepatic carcinoma cells = assay: Cell migration assay (wound scratch, transwell); assay type: cell-based, human; conditions: HepG2 and SK-Hep1, 0-4 μM
Description: For transwell assay, the hepatic carcinoma cells were seeded in wells and put wells into 24-well plates pre-loaded DMEM medium supplemented with 20% FBS. The wells were added only DMEM medium with Tc3. The cells migrated through the membrane of wells in two days. Next, the wells were fixed by paraformaldehyde, stained by crystal violet and photographed for statistical analysis. For cell scratch assay, the hepatic carcinoma cells were seeded in 6-well plates and treated with Tc3. The scratch lines were obtained before the cell fusion reached almost 100%, and the cells were photographed at time gradient points for statistical analysis.

CD8^+ T cells = assay: Fluorescence staining and flow cytometry of tumor-infiltrating cells; assay type: in vivo, C57 BL/6N mice; conditions: Hepa1-6 CDXs, 10 mg/kg
Description: The lymphocytes were isolated from the tumors and blocked by purified CD16/32 antibody. Next, the cells were stained with fluorescent-conjugated antibodies (FITC-CD11b, APC-F4/80, PE-CD86, Alexa Flour® 700-CD206, APC-Ly6G, FITC-CD45, APC-CD8a, Pacific Blue^TM-IFN-γ). The fluorescence intensity was measured by a FACS Calibur, and data were analyzed with FlowJo software.
The mice tumor tissues were embedded into the OCT reagent and sliced into 10 μm sections via the freezing microtome. The sections were fixed by paraformaldehyde, blocked by 3% bovine serum albumin (BSA, Beyotime, ST2254), and incubated with the primary antibodies overnight. In the second day, the sections were incubated with the fluorescent‐conjugated antibodies and 4′,6‐diamidino‐2‐phenylindole (DAPI, Solarbio, C0065) for nuclei. The tissue fluorescent images were captured by a confocal microscope (Leica, TCS SP8) and analyzed by imageJ software.

[1] = Hydrolytic stability in phosphate buffer (HPLC); assay type: physicochemical; conditions: phosphate buffer of PH 7.4 over 150 minutes
Description: The stability of Tc3 was evaluated by an UltiMate 3000 Dual-Gradient HPLC system (Sunnyvale, CA, USA). The samples of solution were chromatographed on ZORBAX Eclipse XDB-C18 column(5 µm, 4.6 × 150 mm, Agela Technologies), using an eluent composed of: water (95%) and acetonitrile (5%) at a flow rate of 1.0 mL/min. […] The hydrolysis of Tc3 was carried out in a phosphate buffer of PH 7.4 (50 ug/ml, initial concentration of 5 mM in methanol) over 150 minutes.

CC(C)[C@H](N)C(=O)NCCCn1cc(/C=C2\S/C(=N\c3ccc(N4CCOCC4)cc3)N(Cc3ccc(F)cc3)C2=O)c2ccccc21 [Tc3]
PERK activation (western blotting) (PERK): activated | LDH release levels (HepG2 and SK-Hep1 cells): highest LDH release | glomerular structure of the kidney (HE staining) (Balb/c mice; 60 mg/kg): slightly damaged | jejunum crypts and villi (HE staining) (Balb/c mice; 60 mg/kg): severely disrupted | weight and health state (Balb/c mice; 60 mg/kg i.p.): lower weight and worse health state | lung findings (HE staining) (Balb/c mice; i.p. every two days, day 14): alveolar wall thickening and increased numbers of lymphocytes | toxicity to the heart, liver, spleen and stomach (HE staining) (Balb/c mice; i.p. every two days, day 14): no significant toxicity | damage to liver, spleen, kidney and small intestine (pathology) (Hepa1-6 CDXs; 10 mg/kg): did not cause significant damage | tumor growth of Hepa1-6 CDXs compared to control groups (Hepa1-6 CDXs; i.p., Tc3 10 mg/kg, anti-PD-1 10 mg/kg): significantly inhibited tumor growth | GSDME activation / cleavage (western blotting) (GSDME): promoted the cleavage of GSDME | growth rate and weight of HepG2 CDX tumors (HepG2 CDXs): significantly smaller | intracellular ROS (DCFH-DA probes) (ROS): observably up-regulated | half-life at 1 μM (in vitro; human): 49.5 min | microsomal CLint at 1 μM (in vitro; human): 28 µL/min/mg | half-life at 1 μM (in vitro; mouse): 116 min | microsomal CLint at 1 μM (in vitro; mouse): 12 µL/min/mg | cell migration rates (wound scratch, transwell) (hepatic carcinoma cells): reduced cell migration rates | infiltration of activated CD8^+ T cells in tumors (CD8^+ T cells): significantly promoted | stability to hydrolysis [1]: no changes
